The term Ki denotes a dissociation constant, usually derived from enzyme kinetics or from competition with a known ligand. Read a low Ki as higher affinity.

Among the data in patent US4962097A, “Method of treating bacterial infection with phosphorus containing DHP enzyme inhibitors” (Merck & Co., Inc., priority 1989, dated 1990) are Ki values, retold here.

The assay concerns the target T1, renal dehydropeptidase I (Sus scrofa, UniProt P22412).
T1 construct: isolated from hog kidneys; from tissue; host or cells: hog kidney
T1 sequence (P22412 17-409): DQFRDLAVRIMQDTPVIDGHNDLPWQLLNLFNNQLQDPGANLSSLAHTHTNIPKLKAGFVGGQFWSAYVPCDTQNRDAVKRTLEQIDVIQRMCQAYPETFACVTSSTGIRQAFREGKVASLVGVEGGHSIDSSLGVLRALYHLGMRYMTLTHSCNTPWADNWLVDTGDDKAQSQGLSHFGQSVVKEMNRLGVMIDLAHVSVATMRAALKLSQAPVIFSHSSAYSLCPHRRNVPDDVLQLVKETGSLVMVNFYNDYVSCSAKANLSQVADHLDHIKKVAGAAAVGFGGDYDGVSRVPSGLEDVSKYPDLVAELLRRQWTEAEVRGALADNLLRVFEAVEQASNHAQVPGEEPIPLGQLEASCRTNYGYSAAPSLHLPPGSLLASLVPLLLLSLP
Nature of the assay: in vitro screen: inhibition of hydrolysis of glycyldehydrophenylalanine (GDP) by solubilized renal dipeptidase from hog kidneys (renal dehydropeptidase I inhibition). In kind it is biochemical. As to conditions: GDP 0.05 mM, 50 mM MOPS pH 7.1, 37° C., 275 nm. As to the method:
This measured the ability of compounds to inhibit hydrolysis of glycyldehydrophenylalanine (GDP) by a solubilized preparation of […] isolated from hog kidneys. The procedure is as follows: to a 1 ml system containing 50 mM "MOPS" (3-(N-morpholino)-propanesulfonic acid) buffer, pH 7.1 is added 5 mg of lyophilized enzyme, and the test compound at a final concentration of 0.1 mM. After a five minute incubation at 37° C., GDP is added to a final concentration of 0.05 mM. Incubation is continued for 10 minutes, at 37° C. and hydroylsis of GDP is measured by the change in optical density with time at 275 nm. Inhibition of the enzyme is gauged by comparison to a standard run containing no inhibitor and is expressed as the inhibitor binding constant K. This is the concentration of the inhibitor which achieves 50% inhibition of the enzyme.

[1] abbreviates: Table II, structure I (saturated).
Where [2] appears, read: Table I, structure II (olefins).

As for `CCCCCCC(CP(=O)(O)C(N)CCCCC)C(=O)O` (racemic) [CH3 (CH2)4; CH3 (CH2)5; RS; RS, (1-Amino-1hexyl) 2-carboxy-l-octyl phosphinic acid], under setting [1], the Ki stood at 8 nM.
With `CC(C)/C=C(\CP(=O)(O)[C@@H](N)CC1CCCCC1)C(=O)O` [(cyclo-C6 H11)CH2; (CH3)2 CH; R; Z], the inhibition constant (Ki) under setting [2] stood at 0.54 nM.
For the compound `CCCCC(CP(=O)(O)C(N)Cc1ccccc1)C(=O)O` (centres unmarked) [PhCH2; CH3 (CH2)3; RS; RS, 1-Amino-2-phenylethyl-[2-carboxy-1-hexyl]phosphinic acid], the Ki under setting [1] turned out to be 84 nM.
The same measure, in the same setting: the figure for `N[C@@H](CC1CCCCC1)P(=O)(O)CC(CC1CCCCC1)C(=O)O` (some centres unmarked) [(1-Amino-2-cyclohexylethyl)-2-carboxy-3-cyclohexyl-1-propyl phosphinic acid] is 0.5 nM.
On to “(1(R)-Amino-2-cyclohexylethyl)2-carboxyl-4-methyl-(E & Z)-2-butenyl phosphinic acids (15C & 15D) [(cyclo-C6 H11)CH2; (CH3)2 CH; RS; Z] [listing 1 of 2 here]”, for which, under setting [2], the affinity corresponds to a Ki of 21 nM.
Same read-out and setting: the same measure for `N[C@@H](CC1CCCCC1)P(=O)(O)C/C(=C\C1CCCCC1)C(=O)O` [(cyclo-C6 H11)CH2; cyclo-C6 H11; R; Z, (1(R)-Amino-2-cyclohexylethyl)2-carboxyl-3(Z)-cyclohexyl-2-propenyl phosphinic acid]: 0.52 nM.
Still for that read-out and setting: the figure for `CCCCC/C=C(\CP(=O)(O)C(N)CC1CCCCC1)C(=O)O` (centres unmarked) [(cyclo-C6 H11)CH2; CH3 (CH2)4; RS; Z, (1-Amino-2-cyclohexylethyl) 2-carboxy-2(Z)-octenyl phosphinic acid] is 3.1 nM.
`CCCCC(CP(=O)(O)C(N)CC(C)C)C(=O)O` (centres unmarked) [(CH3)2 CHCH2; CH3 (CH2)3; RS; RS, 1-Amino-3-methylbutyl-[2-carboxy-1-hexyl]phosphinic acid] yielded an inhibition constant Ki under setting [1] of 2.4 nM.
Same read-out and setting: the figure for `CCCCCC(N)P(=O)(O)CC(CCC1CCCC1)C(=O)O` (racemic) [CH3 (CH2)4; (cyclo-C5 H9)CH2 CH2; RS; RS, (1-Amino-1-hexyl) 2-carboxy-4-cyclopenyl-1-butyl phosphinic acid] is 7 nM.
With `N[C@@H](CC1CCCCC1)P(=O)(O)C/C(=C\CC1CCCC1)C(=O)O` [(1(R)-Amino-2-cyclohexylethyl)2-carboxy-4-cyclopentyl-2(Z)-butenyl phosphinic acid], the Ki under setting [2] was 0.86 nM.
Under setting [2], `CCCC/C=C(\CP(=O)(O)C(N)CC(C)C)C(=O)O` (centres unmarked) [(CH3)2 CHCH2; CH3 (CH2)3; RS; Z] had an inhibition constant Ki of 1.6 nM. Against the preceding compound, the Ki is about 1.9-fold higher.
Under setting [1], `CCCCCC(N)P(=O)(O)CC(CC1CCCCC1)C(=O)O` (centres unmarked) [CH3 (CH2)4; (cyclo-C6 H11)CH2; RS; RS, (1-Amino-1-hexyl) 2-carboxy-3-cyclohexyl-1-propyl phosphinic acid] returned a Ki of 9.7 nM.
Regarding `CCCCC/C=C(\CP(=O)(O)C(N)Cc1ccccc1)C(=O)O` (centres unmarked) [PhCH2; CH3 (CH2)4; RS; Z], the affinity under setting [2], expressed as Ki, was 68 nM. This counts as double-digit nanomolar.
For the compound `CCCCCCC(CP(=O)(O)C(N)CC1CCCCC1)C(=O)O` (centres unmarked) [(cyclo-C6 H11)CH2; CH3 (CH2)5; RS; RS, (1-Amino-2-cyclohexylethyl) 2-carboxy-1-octyl phosphinic acid], the Ki under setting [1] worked out at 1.6 nM. That is a single-digit nanomolar value.
In turn, `NC(CC1CCCCC1)P(=O)(O)C/C(=C\C1CCCCC1)C(=O)O` (centres unmarked) [(cyclo-C6 H11)CH2; cyclo-C6 H11; RS; Z, (1-Amino-2-cyclohexylethyl) 2-carboxy-3(Z)-cyclohexyl-2-propenyl phosphinic acid] yielded an inhibitory constant (Ki) under setting [2] of 0.9 nM.
As to `N[C@@H](CC1CCCCC1)P(=O)(O)CC(CCC1CCCC1)C(=O)O` (some centres unmarked) [(1-Amino-2-cyclohexylethyl) 2-carboxy-4-cyclopentyl-1-butyl phosphinic acid], affinity under setting [1] was put at a Ki of 2.7 nM.
The same measure, in the same setting: the figure for `CCC(CP(=O)(O)C(N)CC)C(=O)O` (racemic) [CH3 CH2; CH3 CH2; RS; RS, 1-Aminopropyl-[2-carboxy-l-butyl]phosphinic acid] is 1.3 nM; for `N[C@@H](CC1CCCCC1)P(=O)(O)CC(CCCc1ccncc1)C(=O)O` (some centres unmarked) [(1-Amino-2-cyclohexylethyl)-2-carboxy-5-(4-pyridyl)-pentyl phosphinic acid] it is 4 nM.
Under setting [1], `CCC(N)P(=O)(O)CC(CCc1ccccc1)C(=O)O` (racemic) [CH3 CH2; Ph(CH2)2; RS; RS, 1-Aminopropyl-[2-carboxy-4-phenyl-l-butyl]phosphinic acid] registered a Ki of 6.8 nM. Compared with the last compound, the Ki is about 1.7-fold higher.
“(1(R)-Amino-2-cyclohexylethyl)2-carboxyl-4-methyl-(E & Z)-2-butenyl phosphinic acids (15C & 15D) [(cyclo-C6 H11)CH2; (CH3)2 CH; RS; Z] [listing 2 of 2 here]” returned a Ki under setting [2] of 2.1 nM.
The compound `CCCCC(CP(=O)(O)C(N)CC)C(=O)O` (racemic) [CH3 CH2; CH3 (CH2)3; RS; RS, 1-Aminopropyl-[2-carboxy-l-hexyl]phosphinic acid] showed a Ki under setting [1] of 2.3 nM. That is a single-digit nanomolar value.
In the case of `CCCCC/C=C(\CP(=O)(O)C(N)CCCCC)C(=O)O` (centres unmarked) [CH3 (CH2)4; CH3 (CH2)4; RS; Z, (1-Aminohexyl) 2-carboxy-2(Z)-octenyl phosphinic acid], the affinity under setting [2], expressed as Ki, was 1.4 nM.
Under setting [2], `CCCCCC(N)P(=O)(O)C/C(=C\C1CCCCC1)C(=O)O` (centres unmarked) [CH3 (CH2)4; cyclo-C6 H11; RS; Z, (1-Aminohexyl) 2-carboxy-3-cyclohexyl-2(Z)-propenyl phosphinic acid] showed a Ki of 0.5 nM.
